Reference: publication PMC6349922

Assay: RCM stapling (C=C formation) of two bridgehead alkenyl ether chains of 7-azabicyclo[2.2.1]heptane amide dimers; Grubbs I, 5-7 mol% (about 2.5-3 mol% for 36), added dropwise over 10-15 min, reflux under Ar
Conditions: CH2Cl2, 1.0 mM, 40.0 °C

Compound `CC(C)(C)OC(=O)N1[C@H]2CC[C@@]13COCCCCCC=CCCCCOCC14CCC(CC1)N4C(=O)[C@H]2C3` [4 -> 9 (C11)] has a ring closure, isolated yield (from C=CCCCCCOC[C@@]12CC[C@@H]([C@@H](C(=O)N3C4CCC3(COCCCCC=C)CC4)C1)N2C(=O)OC(C)(C)C, 21-membered ring, 2.0 h) of 87%.

Work on `CC(C)(C)OC(=O)N1[C@H]2CC[C@@]13COCCCC=CCCCOCC14CCC(CC1)N4C(=O)[C@H]2C3` [1 -> 6 (C8)] yielded a ring closure, isolated yield (from C=CCCCOCC12CCC(CC1)N2C(=O)[C@H]1C[C@@]2(COCCCC=C)CC[C@@H]1N2C(=O)OC(C)(C)C, 18-membered ring, 8.0 h) of 73%.

With `CC(C)(C)OC(=O)N1[C@H]2CC[C@@]13COCCCCC=CCCCCOCC14CCC(CC1)N4C(=O)[C@H]2C3` [3 -> 8 (C10)] the ring closure, isolated yield (from C=CCCCCOCC12CCC(CC1)N2C(=O)[C@H]1C[C@@]2(COCCCCC=C)CC[C@@H]1N2C(=O)OC(C)(C)C, 20-membered ring, 3.0 h) was 94%.

Compound `CC(C)(C)OC(=O)N1[C@H]2CC[C@@]13COCCCCCC=CCCCCCOCC14CCC(CC1)N4C(=O)[C@H]2C3` [5 -> 10 (C12)] has a ring closure, isolated yield (from C=CCCCCCOCC12CCC(CC1)N2C(=O)[C@H]1C[C@@]2(COCCCCCC=C)CC[C@@H]1N2C(=O)OC(C)(C)C, 22-membered ring, 16.0 h) of 64%.

For `CC(C)(C)OC(=O)N1[C@H]2CC[C@@]13COCCCCC=CCCCOCC14CCC(CC1)N4C(=O)[C@H]2C3` [2 -> 7 (C9)], the ring closure, isolated yield (from C=CCCCCOC[C@@]12CC[C@@H]([C@@H](C(=O)N3C4CCC3(COCCCC=C)CC4)C1)N2C(=O)OC(C)(C)C, 19-membered ring, 4.0 h) was 80%.

For `Cc1ccc(S(=O)(=O)N2[C@H]3CC[C@@]24COCCCCC=CCCCCOCC25CCC(CC2)N5C(=O)[C@H]3C4)cc1` [36 -> Ts-8 (C10, N-Ts)], the ring closure, isolated yield (from C=CCCCCOCC12CCC(CC1)N2C(=O)[C@H]1C[C@@]2(COCCCCC=C)CC[C@@H]1N2S(=O)(=O)c1ccc(C)cc1, 20-membered ring, 1.0 h) was 91%.
